Results from patent US20240158446A1, “CYCLIC COMPOUND HAVING SELECTIVE INHIBITORY ACTION ON KRAS OVER HRAS AND NRAS” (CHUGAI SEIYAKU KABUSHIKI KAISHA, priority 2021, published 2024).

Assays:
[1] = target: GDP-bound NRAS wild-type protein (Homo sapiens, UniProt P01111); test: Binding to NRAS by surface plasmon resonance (SPR), Single Cycle Kinetics; conditions: SPR, GDP-bound NRAS wild-type protein vs GDP-bound KRAS wild-type protein
[2] = target: GDP-bound KRAS wild-type protein (Homo sapiens, UniProt P01116); test: Binding to KRAS by surface plasmon resonance (SPR), Single Cycle Kinetics; conditions: SPR, Single Cycle Kinetics, GDP-bound KRAS wild-type protein; read-out: KRAS KD
GDP-bound KRAS wild-type protein, sequence (P01116 whole entry): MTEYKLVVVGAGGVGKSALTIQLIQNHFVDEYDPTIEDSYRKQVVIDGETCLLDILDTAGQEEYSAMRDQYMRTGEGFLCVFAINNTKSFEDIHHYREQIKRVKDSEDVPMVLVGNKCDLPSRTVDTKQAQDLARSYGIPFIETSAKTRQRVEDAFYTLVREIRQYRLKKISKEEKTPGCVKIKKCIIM

[3] = target: GDP-bound HRAS wild-type protein (Homo sapiens, UniProt P01112); test: Binding to HRAS by surface plasmon resonance (SPR), Single Cycle Kinetics; conditions: SPR, GDP-bound HRAS wild-type protein vs GDP-bound KRAS wild-type protein
GDP-bound HRAS wild-type protein, sequence (P01112 whole entry): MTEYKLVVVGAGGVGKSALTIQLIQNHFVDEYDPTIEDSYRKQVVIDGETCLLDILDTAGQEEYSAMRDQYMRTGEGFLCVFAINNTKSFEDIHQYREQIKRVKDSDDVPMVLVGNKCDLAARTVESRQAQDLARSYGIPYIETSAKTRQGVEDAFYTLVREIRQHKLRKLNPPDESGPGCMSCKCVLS

GDP-bound NRAS wild-type protein, sequence (P01111 whole entry): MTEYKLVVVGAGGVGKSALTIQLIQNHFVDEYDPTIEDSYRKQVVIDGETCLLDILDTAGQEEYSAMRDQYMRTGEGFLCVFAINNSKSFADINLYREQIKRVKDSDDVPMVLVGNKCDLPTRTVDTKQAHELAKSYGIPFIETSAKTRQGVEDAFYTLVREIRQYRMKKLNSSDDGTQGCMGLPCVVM

Structure (SMILES): CCO[C@@H]1C[C@H]2C(=O)NC3(CC(C)(C)C3)C(=O)N(C)[C@@H](C(CC)CC)C(=O)N(C)[C@H](C(=O)N(C)C)CC(=O)N(C)[C@@H](CC3CCC3)C(=O)N[C@@H]([C@@H](C)CC)C(=O)N(C)CC(=O)N(C)[C@H]3C/C=C\CCN(C3=O)[C@@H](Cc3ccc(C)cc3)C(=O)N(C)CC(=O)N[C@@H](CCc3cc(F)c(C(F)(F)F)c(F)c3)C(=O)N2C1 [PP2151]
- NRAS/KRAS (ratio of KD value for NRAS to KD value for KRAS) [1]: A (a compound having 10 or more and less than 20 is denoted as A)
- Kd [2]: 290 pM
- HRAS/KRAS (ratio of KD value for HRAS to KD value for KRAS) [3]: A (a compound having 10 or more and less than 20 is denoted as A)

Structure (SMILES): CCO[C@@H]1C[C@H]2C(=O)NC3(CC(C)(C)C3)C(=O)N(C)[C@@H](C(CC)CC)C(=O)N(C)[C@H](C(=O)N3CCCC3)CC(=O)N(C)[C@@H](C)C(=O)N[C@@H]([C@@H](C)CC)C(=O)N(C)CC(=O)N(C)[C@H]3C/C=C\CCN(C3=O)[C@@H](Cc3ccc(C)cc3)C(=O)N(C)CC(=O)N[C@@H](CCc3ccc(C(F)(F)F)c(Cl)c3)C(=O)N2C1 [PP2152]
- NRAS/KRAS (ratio of KD value for NRAS to KD value for KRAS) [1]: AA (a compound having 20 or more is denoted as AA)
- Kd [2]: 670 pM
- HRAS/KRAS (ratio of KD value for HRAS to KD value for KRAS) [3]: A (a compound having 10 or more and less than 20 is denoted as A)

Structure (SMILES): CCO[C@@H]1C[C@H]2C(=O)NC3(CC(C)(C)C3)C(=O)N(C)[C@@H](C(CC)CC)C(=O)N(C)[C@H](C(=O)N(C)C)CC(=O)N(C)[C@@H](CC)C(=O)N[C@@H]([C@@H](C)CC)C(=O)N(C)CC(=O)N(C)[C@H]3C/C=C\CCN(C3=O)[C@@H](Cc3ccc(C)cc3)C(=O)N(C)CC(=O)N[C@@H](CCc3ccc(C(F)(F)F)c(Cl)c3)C(=O)N2C1 [PP2154]
- NRAS/KRAS (ratio of KD value for NRAS to KD value for KRAS) [1]: A (a compound having 10 or more and less than 20 is denoted as A)
- Kd [2]: 360 pM
- HRAS/KRAS (ratio of KD value for HRAS to KD value for KRAS) [3]: A (a compound having 10 or more and less than 20 is denoted as A)

Structure (SMILES): CCO[C@@H]1C[C@H]2C(=O)NC3(CC(C)(C)C3)C(=O)N(C)[C@@H](C(CC)CC)C(=O)N(C)[C@H](C(=O)N(C)C)CC(=O)N(C)[C@@H](CC3CC3)C(=O)N[C@@H]([C@@H](C)CC)C(=O)N(C)CC(=O)N(C)[C@H]3C/C=C\CCN(C3=O)[C@@H](Cc3ccc(C(F)(F)F)cc3)C(=O)N(C)CC(=O)N[C@@H](CCc3ccc(C(F)(F)F)c(OC)c3)C(=O)N2C1 [PP2155]
- NRAS/KRAS (ratio of KD value for NRAS to KD value for KRAS) [1]: A (a compound having 10 or more and less than 20 is denoted as A)
- Kd [2]: 370 pM
- HRAS/KRAS (ratio of KD value for HRAS to KD value for KRAS) [3]: B (a compound having 3 or more and less than 10 is denoted as B)

Structure (SMILES): CCO[C@@H]1C[C@H]2C(=O)NC3(CC(C)(C)C3)C(=O)N(C)[C@@H](C(CC)CC)C(=O)N(C)[C@H](C(=O)N(C)C)CC(=O)N(C)[C@@H](CC3CCC3)C(=O)N[C@@H]([C@@H](C)CC)C(=O)N(C)CC(=O)N(C)[C@H]3C/C=C\CCN(C3=O)[C@@H](Cc3ccc(C)cc3)C(=O)N(C)CC(=O)N[C@@H](CCc3ccc(C(F)(F)F)c(Cl)c3)C(=O)N2C1 [PP2156]
- NRAS/KRAS (ratio of KD value for NRAS to KD value for KRAS) [1]: AA (a compound having 20 or more is denoted as AA)
- Kd [2]: 410 pM
- HRAS/KRAS (ratio of KD value for HRAS to KD value for KRAS) [3]: A (a compound having 10 or more and less than 20 is denoted as A)

Structure (SMILES): CCO[C@@H]1C[C@H]2C(=O)NC3(CC(C)(C)C3)C(=O)N(C)[C@@H](C(CC)CC)C(=O)N(C)[C@H](C(=O)N(C)C)CC(=O)N(C)[C@@H](COC)C(=O)N[C@@H]([C@@H](C)CC)C(=O)N(C)CC(=O)N(C)[C@H]3C/C=C\CCN(C3=O)[C@@H](Cc3ccc(C(F)(F)F)cc3)C(=O)N(C)CC(=O)N[C@@H](CCc3ccc(C(F)(F)F)c(OC)c3)C(=O)N2C1 [PP2157]
- NRAS/KRAS (ratio of KD value for NRAS to KD value for KRAS) [1]: A (a compound having 10 or more and less than 20 is denoted as A)
- Kd [2]: 190 pM
- HRAS/KRAS (ratio of KD value for HRAS to KD value for KRAS) [3]: A (a compound having 10 or more and less than 20 is denoted as A)

Structure (SMILES): CCO[C@@H]1C[C@H]2C(=O)NC3(CC(C)(C)C3)C(=O)N(C)[C@@H](C(CC)CC)C(=O)N(C)[C@H](C(=O)N3CCCC3)CC(=O)N(C)[C@@H](COC)C(=O)N[C@@H]([C@@H](C)CC)C(=O)N(C)CC(=O)N(C)[C@H]3C/C=C\CCN(C3=O)[C@@H](Cc3ccc(C(F)(F)F)cc3)C(=O)N(C)CC(=O)N[C@@H](CCc3ccc(C(F)(F)F)c(OC)c3)C(=O)N2C1 [PP2159]
- NRAS/KRAS (ratio of KD value for NRAS to KD value for KRAS) [1]: AA (a compound having 20 or more is denoted as AA)
- Kd [2]: 330 pM
- HRAS/KRAS (ratio of KD value for HRAS to KD value for KRAS) [3]: A (a compound having 10 or more and less than 20 is denoted as A)

Structure (SMILES): CCC[C@H]1C(=O)N[C@@H]([C@@H](C)CC)C(=O)N(C)CC(=O)N(C)[C@H]2C/C=C\CCN(C2=O)[C@@H](Cc2ccc(C(F)(F)F)cc2)C(=O)N(C)CC(=O)N[C@@H](CCc2ccc(C(F)(F)F)c(OC)c2)C(=O)N2C[C@H](OCC)C[C@H]2C(=O)NC2(CC(C)(C)C2)C(=O)N(C)[C@@H](C(CC)CC)C(=O)N(C)[C@H](C(=O)N(C)C)CC(=O)N1C [PP2160]
- NRAS/KRAS (ratio of KD value for NRAS to KD value for KRAS) [1]: A (a compound having 10 or more and less than 20 is denoted as A)
- Kd [2]: 220 pM
- HRAS/KRAS (ratio of KD value for HRAS to KD value for KRAS) [3]: A (a compound having 10 or more and less than 20 is denoted as A)

Structure (SMILES): CCO[C@@H]1C[C@H]2C(=O)NC3(CC(C)(C)C3)C(=O)N(C)[C@@H](C(CC)CC)C(=O)N(C)[C@H](C(=O)N(C)C)CC(=O)N(C)[C@@H](CC(C)C)C(=O)N[C@@H]([C@@H](C)CC)C(=O)N(C)CC(=O)N(C)[C@H]3C/C=C\CCN(C3=O)[C@@H](Cc3ccc(C(F)(F)F)cc3)C(=O)N(C)CC(=O)N[C@@H](CCc3ccc(C(F)(F)F)c(OC)c3)C(=O)N2C1 [PP2161]
- NRAS/KRAS (ratio of KD value for NRAS to KD value for KRAS) [1]: AA (a compound having 20 or more is denoted as AA)
- Kd [2]: 200 pM
- HRAS/KRAS (ratio of KD value for HRAS to KD value for KRAS) [3]: A (a compound having 10 or more and less than 20 is denoted as A)

Structure (SMILES): CCO[C@@H]1C[C@H]2C(=O)NC3(CC(C)(C)C3)C(=O)N(C)[C@@H](C(CC)CC)C(=O)N(C)[C@H](C(=O)N3CCCC3)CC(=O)N(C)[C@@H](C)C(=O)N[C@@H]([C@@H](C)CC)C(=O)N(C)CC(=O)N(C)[C@H]3C/C=C\CCN(C3=O)[C@@H](Cc3ccc(C(F)(F)F)cc3)C(=O)N(C)CC(=O)N[C@@H](CCc3ccc(C(F)(F)F)c(OC)c3)C(=O)N2C1 [PP2163]
- NRAS/KRAS (ratio of KD value for NRAS to KD value for KRAS) [1]: A (a compound having 10 or more and less than 20 is denoted as A)
- Kd [2]: 410 pM
- HRAS/KRAS (ratio of KD value for HRAS to KD value for KRAS) [3]: A (a compound having 10 or more and less than 20 is denoted as A)

Structure (SMILES): CCO[C@@H]1C[C@H]2C(=O)NC3(CC(C)(C)C3)C(=O)N(C)[C@@H](C(CC)CC)C(=O)N(C)[C@H](C(=O)N(C)C)CC(=O)N(C)[C@@H](CC3CCC3)C(=O)N[C@@H]([C@@H](C)CC)C(=O)N(C)CC(=O)N(C)[C@H]3C/C=C\CCN(C3=O)[C@@H](Cc3ccc(C(F)(F)F)cc3)C(=O)N(C)CC(=O)N[C@@H](CCc3ccc(C(F)(F)F)c(OC)c3)C(=O)N2C1 [PP2164]
- NRAS/KRAS (ratio of KD value for NRAS to KD value for KRAS) [1]: A (a compound having 10 or more and less than 20 is denoted as A)
- Kd [2]: 290 pM
- HRAS/KRAS (ratio of KD value for HRAS to KD value for KRAS) [3]: A (a compound having 10 or more and less than 20 is denoted as A)

Structure (SMILES): CCO[C@@H]1C[C@H]2C(=O)NC3(CC(C)(C)C3)C(=O)N(C)[C@@H](C(CC)CC)C(=O)N(C)[C@H](C(=O)N(C)C)CC(=O)N(C)[C@@H](C(C)C)C(=O)N[C@@H]([C@@H](C)CC)C(=O)N(C)CC(=O)N(C)[C@H]3C/C=C\CCN(C3=O)[C@@H](Cc3ccc(C(F)(F)F)cc3)C(=O)N(C)CC(=O)N[C@@H](CCc3ccc(C(F)(F)F)c(OC)c3)C(=O)N2C1 [PP2165]
- NRAS/KRAS (ratio of KD value for NRAS to KD value for KRAS) [1]: A (a compound having 10 or more and less than 20 is denoted as A)
- Kd [2]: 510 pM
- HRAS/KRAS (ratio of KD value for HRAS to KD value for KRAS) [3]: A (a compound having 10 or more and less than 20 is denoted as A)

Structure (SMILES): CCO[C@@H]1C[C@H]2C(=O)NC3(CC(C)(C)C3)C(=O)N(C)[C@@H](C(CC)CC)C(=O)N(C)[C@H](C(=O)N(C)C)CC(=O)N(C)[C@@H](CC3CC3)C(=O)N[C@@H]([C@@H](C)CC)C(=O)N(C)CC(=O)N(C)[C@H]3C/C=C\CCN(C3=O)[C@@H](Cc3ccc(C)cc3)C(=O)N(C)CC(=O)N[C@@H](CCc3ccc(C(F)(F)F)c(OC)c3)C(=O)N2C1 [PP2166]
- NRAS/KRAS (ratio of KD value for NRAS to KD value for KRAS) [1]: A (a compound having 10 or more and less than 20 is denoted as A)
- Kd [2]: 290 pM
- HRAS/KRAS (ratio of KD value for HRAS to KD value for KRAS) [3]: A (a compound having 10 or more and less than 20 is denoted as A)

Structure (SMILES): CCO[C@@H]1C[C@H]2C(=O)NC3(CC(C)(C)C3)C(=O)N(C)[C@@H](C(CC)CC)C(=O)N(C)[C@H](C(=O)N3CCCC3)CC(=O)N(C)[C@@H](COC)C(=O)N[C@@H]([C@@H](C)CC)C(=O)N(C)CC(=O)N(C)[C@H]3C/C=C\CCN(C3=O)[C@@H](Cc3ccc(C)cc3)C(=O)N(C)CC(=O)N[C@@H](CCc3ccc(C(F)(F)F)c(OC)c3)C(=O)N2C1 [PP2167]
- NRAS/KRAS (ratio of KD value for NRAS to KD value for KRAS) [1]: AA (a compound having 20 or more is denoted as AA)
- Kd [2]: 710 pM
- HRAS/KRAS (ratio of KD value for HRAS to KD value for KRAS) [3]: A (a compound having 10 or more and less than 20 is denoted as A)

Structure (SMILES): CCO[C@@H]1C[C@H]2C(=O)NC3(CC(C)(C)C3)C(=O)N(C)[C@@H](C(CC)CC)C(=O)N(C)[C@H](C(=O)N(C)C)CC(=O)N(C)[C@@H](CC(C)C)C(=O)N[C@@H]([C@@H](C)CC)C(=O)N(C)CC(=O)N(C)[C@H]3C/C=C\CCN(C3=O)[C@@H](Cc3ccc(C)cc3)C(=O)N(C)CC(=O)N[C@@H](CCc3ccc(C(F)(F)F)c(OC)c3)C(=O)N2C1 [PP2168]
- NRAS/KRAS (ratio of KD value for NRAS to KD value for KRAS) [1]: A (a compound having 10 or more and less than 20 is denoted as A)
- Kd [2]: 330 pM
- HRAS/KRAS (ratio of KD value for HRAS to KD value for KRAS) [3]: A (a compound having 10 or more and less than 20 is denoted as A)
